With `CCCCCCCCCCCC(=O)NCCCN(C)C` [D, dodecylamidopropyl dimethylamine] the “stability at high temperature” value was “not stable”.

Reference: patent publication US20200010756A1, “SURFACTANT FOR ENHANCED OIL RECOVERY” (Total S.A., priority 2017, published 2020)
